Measurements: patent US20130030001A1 (priority 2008, published 2013)
pIC50: −log10 of the molar value. Structures can show the parent of a compound that is named as a salt.

These molecules were tested against T1, human muscarinic acetylcholine M3 receptor (Homo sapiens, UniProt P20309) (assay: biochemical). Conditions: M3 binding IC50.
T1 construct: expressed in transfected cells; host or cells: CHO-K1 (Chinese Hamster Ovary) cell membranes
T1 sequence (P20309 whole entry): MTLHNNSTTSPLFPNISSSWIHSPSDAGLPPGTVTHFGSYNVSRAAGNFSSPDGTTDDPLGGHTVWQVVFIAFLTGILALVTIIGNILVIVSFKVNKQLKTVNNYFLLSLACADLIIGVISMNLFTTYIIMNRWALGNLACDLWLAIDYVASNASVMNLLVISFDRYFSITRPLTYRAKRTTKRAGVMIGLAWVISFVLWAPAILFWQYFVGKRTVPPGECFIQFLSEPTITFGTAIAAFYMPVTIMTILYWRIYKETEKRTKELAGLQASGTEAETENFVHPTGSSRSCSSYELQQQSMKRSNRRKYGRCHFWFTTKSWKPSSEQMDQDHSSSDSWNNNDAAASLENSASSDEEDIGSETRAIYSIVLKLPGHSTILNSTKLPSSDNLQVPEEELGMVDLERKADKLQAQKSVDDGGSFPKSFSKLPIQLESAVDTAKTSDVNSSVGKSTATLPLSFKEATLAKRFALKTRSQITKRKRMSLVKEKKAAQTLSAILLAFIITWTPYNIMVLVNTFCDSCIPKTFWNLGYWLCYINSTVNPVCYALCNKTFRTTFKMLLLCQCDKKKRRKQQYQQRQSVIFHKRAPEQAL
Format: binding
`Cc1ccc(NC(=O)C[N+]23CCC(CC2)[C@@H](OC(=O)C2(c4ccccc4)CCCCCC2)C3)cn1` [Example 1, (R)-1-[(6-Methyl-pyridin-3-ylcarbamoyl)-methyl]-3-(1-phenyl-cycloheptanecarbonyloxy)-1-azonia-bicyclo[2.2.2]octane chloride] was tested, and the pIC50 was over 8.70.
With `Cc1cncc(NC(=O)C[N+]23CCC(CC2)[C@@H](OC(=O)C2(c4ccccc4)CCCCCC2)C3)n1` [Example 2, (R)-1-[(6-Methyl-pyrazin-2-ylcarbamoyl)-methyl]-3-(1-phenyl-cycloheptanecarbonyloxy)-1-azonia-bicyclo[2.2.2]octane bromide] the pIC50 was over 8.70.
`O=C(C[N+]12CCC(CC1)[C@@H](OC(=O)C1(c3ccccc3)CCCCCC1)C2)Nc1ccc(C(F)(F)F)nn1` [Example 3, (R)-3-(1-Phenyl-cycloheptanecarbonyloxy)-1-[(6-trifluoromethyl-pyridazin-3-ylcarbamoyl)-methyl]-1-azonia-bicyclo[2.2.2]octane bromide] gave a pIC50 of 8.00 to 8.70.
For `O=C(C[N+]12CCC(CC1)[C@@H](OC(=O)C1(c3ccccc3)CCCCCC1)C2)Nc1noc2ccccc12` [Example 4, (R)-1-(Benzo[d]isoxazol-3-ylcarbamoylmethyl)-3-(1-phenyl-cycloheptanecarbonyloxy)-1-azonia-bicyclo[2.2.2]octane chloride], the pIC50 was over 8.70.
Work on `O=C(C[N+]12CCC(CC1)[C@@H](OC(=O)C1(c3cccs3)CCCCCC1)C2)Nc1cccnn1` [Example 5, (R)-1-(Pyridazin-3-ylcarbamoylmethyl)-3-(1-thiophen-2-yl-cycloheptanecarbonyloxy)-1-azonia-bicyclo[2.2.2]octane bromide] yielded a pIC50 of over 8.70.
`Cc1cc(NC(=O)C[N+]23CCC(CC2)[C@@H](OC(=O)C2(c4cccs4)CCCCCC2)C3)no1` [Example 6, (R)-1-[(5-Methyl-isoxazol-3-ylcarbamoyl)-methyl]-3-(1-thiophen-2-yl-cycloheptanecarbonyloxy)-1-azonia-bicyclo[2.2.2]octane bromide] showed a pIC50 of over 8.70.
Molecule `Cc1cc(NC(=O)C[N+]23CCC(CC2)[C@@H](OC(=O)C2(c4cccs4)CCCCCC2)C3)on1` [Example 7, (R)-1-[(3-Methyl-isoxazol-5-ylcarbamoyl)-methyl]-3-(1-thiophen-2-yl-cycloheptanecarbonyloxy)-1-azonia-bicyclo[2.2.2]octane bromide] has a pIC50 of 8.00 to 8.70.
With `O=C(C[N+]12CCC(CC1)[C@@H](OC(=O)C1(c3cccs3)CCCCCC1)C2)Nc1cccc(F)c1` [Example 8, (R)-1-[(3-Fluoro-phenylcarbamoyl)-methyl]-3-(1-thiophen-2-yl-cycloheptanecarbonyloxy)-1-azonia-bicyclo[2.2.2]octane bromide] the pIC50 was over 8.70.
For `Cc1cnc(NC(=O)C[N+]23CCC(CC2)[C@@H](OC(=O)C2(c4cccs4)CCCCCC2)C3)cn1` [Example 9, (R)-1-[(5-Methyl-pyrazin-2-ylcarbamoyl)-methyl]-3-(1-thiophen-2-yl-cycloheptanecarbonyloxy)-1-azonia-bicyclo[2.2.2]octane bromide], the pIC50 was over 8.70.
Molecule `O=C(C[N+]12CCC(CC1)[C@@H](OC(=O)C1(c3cccs3)CCCCCC1)C2)Nc1noc2ccccc12` [Example 10, (R)-1-(Benzo[d]isoxazol-3-ylcarbamoylmethyl)-3-(1-thiophen-2-yl-cycloheptanecarbonyloxy)-1-azonia-bicyclo[2.2.2]octane chloride] has a pIC50 of over 8.70.
`O=C(C[N+]12CCC(CC1)[C@@H](OC(=O)C1(c3ccccc3)CCCCCC1)C2)Nc1ccncc1` [Example 16, (R)-3-(1-Phenyl-cycloheptanecarbonyloxy)-1-(pyridin-4-ylcarbamoylmethyl)-1-azonia-bicyclo[2.2.2]octane chloride] was tested, and the pIC50 was over 8.70.
In the case of `Cc1ccc(NC(=O)C[N+]23CCC(CC2)[C@@H](OC(=O)C2(c4ccccc4)CCCCCC2)C3)nc1` [Example 18, (R)-1-[(5-Methyl-pyridin-2-ylcarbamoyl)-methyl]-3-(1-phenyl-cycloheptanecarbonyloxy)-1-azonia-bicyclo[2.2.2]octane chloride], the pIC50 was over 8.70.
With `O=C(C[N+]12CCC(CC1)[C@@H](OC(=O)C1(c3ccccc3)CCCCCC1)C2)Nc1ccncn1` [Example 22, (R)-3-(1-Phenyl-cycloheptanecarbonyloxy)-1-(pyrimidin-4-ylcarbamoylmethyl)-1-azonia-bicyclo[2.2.2]octane chloride] the pIC50 was over 8.70.
Molecule `O=C(C[N+]12CCC(CC1)[C@@H](OC(=O)C1(c3ccccc3)CCCCCC1)C2)Nc1ccccc1F` [Example 23, (R)-1-[(2-Fluoro-phenylcarbamoyl)-methyl]-3-(1-phenyl-cycloheptanecarbonyloxy)-1-azonia-bicyclo[2.2.2]octane bromide] has a pIC50 of over 8.70.
`O=C(C[N+]12CCC(CC1)[C@@H](OC(=O)C1(c3ccccc3)CCCCCC1)C2)Nc1cccc(F)c1F` [Example 24, (R)-1-[(2,3-Difluoro-phenylcarbamoyl)-methyl]-3-(1-phenyl-cycloheptanecarbonyloxy)-1-azonia-bicyclo[2.2.2]octane bromide] gave a pIC50 of over 8.70.
With `O=C(O[C@H]1C[N+]2(CCc3ccc4c(c3)CCO4)CCC1CC2)C1(c2ccccc2)CCCCCC1` [Example 25, (R)-1-[2-(2,3-Dihydro-benzofuran-5-yl)-ethyl]-3-(1-phenyl-cycloheptanecarbonyloxy)-1-azonia-bicyclo[2.2.2]octane formate] the pIC50 was over 8.70.
Molecule `O=C(O[C@H]1C[N+]2(CCOc3ccc(F)cc3)CCC1CC2)C1(c2ccccc2)CCCCCC1` [Example 26, (R)-1-[2-(4-Fluoro-phenoxy)-ethyl]-3-(1-phenyl-cycloheptanecarbonyloxy)-1-azonia-bicyclo[2.2.2]octane formate] has a pIC50 of over 8.70.
`O=C(C[N+]12CCC(CC1)[C@@H](OC(=O)C1(c3ccccc3)CCCCCC1)C2)Nc1ccnnc1` [Example 27, (R)-3-(1-phenyl-cycloheptanecarbonyloxy)-1-(pyridazin-4-ylcarbamoylmethyl)-1-azonia-bicyclo[2.2.2]octane formate] gave a pIC50 of 8.00 to 8.70.
In the case of `O=C(C[N+]12CCC(CC1)[C@@H](OC(=O)C1(c3ccccc3)CCCCCC1)C2)Nc1cncc(F)c1` [Example 28, (R)-1-[(5-Fluoro-pyridin-3-ylcarbamoyl)-methyl]-3-(1-phenyl-cycloheptanecarbonyloxy)-1-azonia-bicyclo[2.2.2]octane chloride], the pIC50 was 8.00 to 8.70.
Molecule `O=C(O[C@H]1C[N+]2(CCOc3cccnc3)CCC1CC2)C1(c2ccccc2)CCCCCC1` [Example 29, (R)-3-(1-Phenyl-cycloheptanecarbonyloxy)-1-[2-(pyridin-3-yloxy)-ethyl]-1-azonia-bicyclo[2.2.2]octane formate] has a pIC50 of 8.00 to 8.70.
Work on `Cc1cccc(NC(=O)C[N+]23CCC(CC2)[C@@H](OC(=O)C2(c4ccccc4)CCCCCC2)C3)n1` [Example 30, (R)-1-[(6-Methyl-pyridin-2-ylcarbamoyl)-methyl]-3-(1-phenyl-cycloheptanecarbonyloxy)-1-azonia-bicyclo[2.2.2]octane chloride] yielded a pIC50 of over 8.70.
Work on `Cc1ccccc1NC(=O)C[N+]12CCC(CC1)[C@@H](OC(=O)C1(c3ccccc3)CCCCCC1)C2` [Example 31, (R)-3-(1-Phenyl-cycloheptanecarbonyloxy)-1-(o-tolylcarbamoyl-methyl)-1-azonia-bicyclo[2.2.2]octane bromide] yielded a pIC50 of 8.00 to 8.70.
`O=C(O[C@H]1C[N+]2(CCc3cnccn3)CCC1CC2)C1(c2ccccc2)CCCCCC1` [Example 32, (R)-3-(1-Phenyl-cycloheptanecarbonyloxy)-1-(2-pyrazin-2-yl-ethyl)-1-azonia-bicyclo[2.2.2]octane bromide] gave a pIC50 of 8.00 to 8.70.
`O=C(O[C@@H]1C[N+]2(CCCOc3ccccc3)CCC1CC2)C1(c2ccccc2)CCCCCC1` [Example 33, (S)-1-(3-Phenoxy-propyl)-3-(1-phenyl-cycloheptanecarbonyloxy)-1-azonia-bicyclo[2.2.2]octane formate] gave a pIC50 of 8.00 to 8.70.
Molecule `O=C(C[N+]12CCC(CC1)[C@@H](OC(=O)C1(c3ccccc3)CCCCCC1)C2)NCCOc1cccc(F)c1` [Example 34, (R)-1-{[2-(3-Fluoro-phenoxy)-ethylcarbamoyl]-methyl}-3-(1-phenyl-cycloheptanecarbonyloxy)-1-azonia-bicyclo[2.2.2]octane bromide] has a pIC50 of 8.00 to 8.70.
`O=C(C[N+]12CCC(CC1)[C@@H](OC(=O)C1(c3ccccc3)CCCCCC1)C2)Nc1cc(F)cc(F)c1` [Example 35, (R)-1-[(3,5-Difluoro-phenylcarbamoyl)-methyl]-3-(1-phenyl-cycloheptanecarbonyloxy)-1-azonia-bicyclo[2.2.2]octane bromide] gave a pIC50 of 8.00 to 8.70.
`COc1ccc(COCC[N+]23CCC(CC2)[C@@H](OC(=O)C2(c4ccccc4)CCCCCC2)C3)cc1` [Example 36, (R)-1-[2-(4-methoxy-benzyloxy)-ethyl]-3-(1-phenyl-cycloheptanecarbonyloxy)-1-azonia-bicyclo[2.2.2]octane formate] showed a pIC50 of 8.00 to 8.70.
For `O=C(O[C@H]1C[N+]2(CCOCCc3ccccc3)CCC1CC2)C1(c2ccccc2)CCCCCC1` [Example 37, (R)-1-(2-Phenethyloxy-ethyl)-3-(1-phenyl-cycloheptanecarbonyloxy)-1-azonia-bicyclo[2.2.2]octane bromide], the pIC50 was over 8.70.
`O=C(C[N+]12CCC(CC1)[C@@H](OC(=O)C1(c3ccccc3)CCCCCC1)C2)Nc1c(F)cccc1F` [Example 38, (R)-1-[(2,6-Difluoro-phenylcarbamoyl)-methyl]-3-(1-phenyl-cycloheptanecarbonyloxy)-1-azonia-bicyclo[2.2.2]octane bromide] gave a pIC50 of over 8.70.
Work on `CN(C(=O)C[N+]12CCC(CC1)[C@@H](OC(=O)C1(c3ccccc3)CCCCCC1)C2)c1ccccc1` [Example 39, (R)-1-[(Methyl-phenyl-carbamoyl)-methyl]-3-(1-phenyl-cycloheptanecarbonyloxy)-1-azonia-bicyclo[2.2.2]octane formate] yielded a pIC50 of 8.00 to 8.70.
`N#Cc1ccc(OCCC[N+]23CCC(CC2)[C@@H](OC(=O)C2(c4ccccc4)CCCCCC2)C3)cc1` [Example 40, (R)-1-[3-(4-Cyano-phenoxy)-propyl]-3-(1-phenyl-cycloheptanecarbonyloxy)-1-azonia-bicyclo[2.2.2]octane bromide] was tested, and the pIC50 was over 8.70.

Same assay, conditions: pIC50
`Cc1ccc(NC(=O)C[N+]23CCC(CC2)[C@@H](OC(=O)C2(c4ccccc4)CCCCCC2)C3)cn1` [Example 1, (R)-1-[(6-Methyl-pyridin-3-ylcarbamoyl)-methyl]-3-(1-phenyl-cycloheptanecarbonyloxy)-1-azonia-bicyclo[2.2.2]octane chloride] gave a pIC50 of 9.10.
`O=C(C[N+]12CCC(CC1)[C@@H](OC(=O)C1(c3cccs3)CCCCCC1)C2)Nc1cccnn1` [Example 5, (R)-1-(Pyridazin-3-ylcarbamoylmethyl)-3-(1-thiophen-2-yl-cycloheptanecarbonyloxy)-1-azonia-bicyclo[2.2.2]octane bromide] showed a pIC50 of 9.40.
